This note sets out measurements from article PMC3760249 (mBio, 2013).

Test [1] addresses T1, AppA (Cereibacter sphaeroides, UniProt Q53119).
T1 sequence (Q53119 1-450): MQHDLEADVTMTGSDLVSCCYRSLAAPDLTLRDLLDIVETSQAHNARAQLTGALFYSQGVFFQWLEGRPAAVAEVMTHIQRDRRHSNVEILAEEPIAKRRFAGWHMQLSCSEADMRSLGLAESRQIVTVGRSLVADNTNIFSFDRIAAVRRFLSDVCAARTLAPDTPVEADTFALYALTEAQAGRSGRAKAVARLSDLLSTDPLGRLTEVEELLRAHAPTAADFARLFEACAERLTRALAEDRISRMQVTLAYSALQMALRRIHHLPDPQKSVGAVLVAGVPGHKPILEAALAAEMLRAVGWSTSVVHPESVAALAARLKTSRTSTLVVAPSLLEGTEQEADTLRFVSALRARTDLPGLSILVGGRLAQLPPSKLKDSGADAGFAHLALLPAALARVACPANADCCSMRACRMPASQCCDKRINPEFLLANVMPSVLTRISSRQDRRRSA
Description: biochemical.

Test [2] addresses T1, AppA. Nature of the test: co-purification, flavin absorption spectrum. It is filed as binding. The note with it: BLUF domain cofactor as purified.

The structures appear in SMILES notation.

The Kd is a measure of binding affinity in units of concentration. Read a low Kd as tighter binding.

`C=CC1=C(C)C2=Cc3c(C=C)c(C)c4[n]3[Fe+][n]3c(c(C)c(CCC(=O)O)c3=CC3=NC(=C4)C(C)=C3CCC(=O)O)=CC1=N2` [heme] came in with a Kd on AppA [1] of 1250 ± 440 nM. On to `Cc1cc2nc3c(=O)[nH]c(=O)nc-3n(C[C@H](O)[C@H](O)[C@H](O)COP(=O)(O)OP(=O)(O)OC[C@H]3O[C@@H](n4cnc5c(N)ncnc54)[C@H](O)[C@@H]3O)c2cc1C` [flavin adenine dinucleotide], for which the “co-purification, flavin absorption spectrum” value on AppA [2] is given as “it does contain flavin adenine dinucleotide (FAD) as the BLUF domain cofactor”.
